The source made the active and inactive calls. The calls are words filed in the database; no cut-off is given here.

The subject of data set [1] is HaCaT. The data set can be described thus: Cytotoxicity against human HaCaT cells assessed as reduction in cell viability after 24 hrs by MTT assay. In kind it is cell-based. Background: Tetrazolium dyes change colour on reduction, which living cells bring about.
Data set [2] deals with HaCaT. The data set can be described thus: Inhibition of TNF-alpha/IFN-gamma-induced apoptosis in human HaCaT cells after 24 hrs by Annexin V-FITC/propidium iodide double staining-based flow cytometry. In kind it is functional, cell-based.
The test system of data set [3] is HaCaT. The data set can be described thus: Inhibition of TNFalpha/IFN-gamma-induced apoptosis in human HaCaT cells assessed as rounded nuclei with sharp edges at 500 to 1500 ug/ml after 24 hrs by Hoechst staining based fluorescence microscopic analysis. In kind it is functional, cell-based.
Data set [4] concerns HaCaT. The data set can be described thus: Inhibition of TNFalpha/IFN-gamma-induced apoptosis in human HaCaT cells assessed as increase in caspase 7 expression at 500 ug/ml after 24 hrs by Western blot analysis. In kind it is functional, cell-based. Background: A western blot detects proteins with antibodies after separation by electrophoresis.
Data set [5] concerns HaCaT. The data set can be described thus: Inhibition of TNFalpha/IFN-gamma-induced apoptosis in human HaCaT cells assessed as increase in cathepsin B expression at 500 ug/ml after 24 hrs by Western blot analysis. In kind it is functional, cell-based.
Data set [6] relates to HaCaT. The data set can be described thus: Inhibition of TNFalpha/IFN-gamma-induced apoptosis in human HaCaT cells assessed as increase in caspase 8 expression at 500 ug/ml after 24 hrs by Western blot analysis. In kind it is functional, cell-based.
Data set [7] has as its system Mus musculus. The data set can be described thus: Protection against DNCB-induced skin inflammation in BALB/c mouse model of atopic dermatitis assessed as number of caspase-3 positive cells at 0.1 g/ml administered topically once daily for 16 days measured post last dose by […] based light microscopic analysis (reference value: 1054 +/- 74.9). In kind it is functional.

Data set [8] concerns HaCaT. The data set can be described thus: Induction of apoptosis in human HaCaT cells at 500 to 1500 ug/ml after 24 hrs by Hoechst staining based fluorescence microscopic analysis. In kind it is cell-based.
Data set [9] has as its system HaCaT. The data set can be described thus: Inhibition of TNF-alpha/IFN-gamma-induced apoptosis in human HaCaT cells assessed as apoptotic rate at 1500 ug/ml after 24 hrs by Annexin V-FITC/propidium iodide double staining-based flow cytometry (reference value: 42.9%). It counts as functional. Set-up: scale not given: the % may be the effect or the level left.
For data set [10], the system named is Mus musculus. The data set can be described thus: Protection against DNCB-induced skin inflammation in BALB/c mouse model of atopic dermatitis assessed as reduction in skin erosion at 0.1 g/ml administered topically once daily for 16 days measured post last dose. It counts as functional, organism-based.
The test system of data set [11] is Mus musculus. The data set can be described thus: Protection against DNCB-induced skin inflammation in BALB/c mouse model of atopic dermatitis assessed as reduction in hair follicle disappearance at 0.1 g/ml administered topically once daily for 16 days measured post last dose. In kind it is functional, organism-based.
The subject of data set [12] is Mus musculus. The data set can be described thus: Protection against DNCB-induced skin inflammation in BALB/c mouse model of atopic dermatitis assessed as reduction in skin erythema at 0.1 g/ml administered topically once daily for 16 days measured post last dose. It counts as functional, organism-based.
Data set [13] in a line: Toxicity in DNCB-induced skin inflammation in BALB/c mouse model of atopic dermatitis assessed as effect on organs at 0.1 g/ml administered topically once daily for 16 days. As to conditions: in vivo, topical_or_ocular, 384 h.
Data set [14] concerns Mus musculus. The data set can be described thus: Protection against DNCB-induced skin inflammation in BALB/c mouse model of atopic dermatitis assessed as reduction in IL4 level at 0.1 g/ml administered topically once daily for 16 days measured post last dose by ELISA. In kind it is functional, organism-based.
The subject of data set [15] is Mus musculus. The data set can be described thus: Protection against DNCB-induced skin inflammation in BALB/c mouse model of atopic dermatitis assessed as reduction in skin dryness at 0.1 g/ml administered topically once daily for 16 days measured post last dose. It counts as functional, organism-based.
In data set [16] the test system is Mus musculus. The data set can be described thus: Protection against DNCB-induced skin inflammation in BALB/c mouse model of atopic dermatitis assessed as reduction in spleen index at 0.1 g/ml administered topically once daily for 16 days measured post last dose. It counts as functional, organism-based.
In data set [17] the test system is HaCaT. The data set can be described thus: Inhibition of TNFalpha/IFN-gamma-induced apoptosis in human HaCaT cells assessed as increase in mitochondrial membrane potential after 24 hrs by DiOC6 probe based flow cytometric analysis. In kind it is functional, cell-based. (Flow cytometry measures light scatter and fluorescence of single cells or particles in a stream.)

The subject of data set [18] is HaCaT. The data set can be described thus: Inhibition of TNFalpha/IFN-gamma-induced apoptosis in human HaCaT cells assessed as increase in Bid expression at 500 ug/ml after 24 hrs by Western blot analysis. In kind it is functional, cell-based.
Data set [19] deals with HaCaT. The data set can be described thus: Inhibition of TNFalpha/IFN-gamma-induced apoptosis in human HaCaT cells assessed as change in mitochondrial membrane potential at 500 ug/ml after 24 hrs by DiOC6 probe based flow cytometric analysis (reference value: 15.36 +/- 0.76). It counts as functional.
Data set [20] has as its system Mus musculus. The data set can be described thus: Protection against DNCB-induced skin inflammation in BALB/c mouse model of atopic dermatitis assessed as reduction in IgE level at 0.1 g/ml administered topically once daily for 16 days measured post last dose by ELISA. It counts as functional, organism-based.
Data set [21] concerns Mus musculus. The data set can be described thus: Protection against DNCB-induced skin inflammation in BALB/c mouse model of atopic dermatitis assessed as reduction in dermal edema at 0.1 g/ml administered topically once daily for 16 days measured post last dose. In kind it is functional, organism-based.
In data set [22] the test system is HaCaT. The data set can be described thus: Inhibition of TNFalpha/IFN-gamma-induced apoptosis in human HaCaT cells assessed as increase in caspase 3 expression at 500 ug/ml after 24 hrs by Western blot analysis. It counts as functional, cell-based.
Data set [23] concerns HaCaT. The data set can be described thus: Inhibition of TNFalpha/IFN-gamma-induced apoptosis in human HaCaT cells assessed as increase in caspase 9 expression at 500 ug/ml after 24 hrs by Western blot analysis. It counts as functional, cell-based.
Data set [24] relates to HaCaT. The data set can be described thus: Inhibition of TNFalpha/IFN-gamma-induced apoptosis in human HaCaT cells assessed as increase in cytochrome C expression at 500 ug/ml after 24 hrs by Western blot analysis. In kind it is functional, cell-based.

For the compound `COc1ccc2cc3[n+](cc2c1OC)CCc1cc2c(cc1-3)OCO2` [BERBERINE], in the data set on HaCaT [1], the Activity entry is “Toxic”. Further, the inhibition entry in the data set on HaCaT [2] was “inactive”.
As for `COc1cc2c(cc1OC)-c1cc3ccc(OC)c(OC)c3c[n+]1CC2` [PALMITINE], the Activity result with HaCaT [1] is “Toxic”. For the same compound, the inhibition result in the data set with HaCaT [2] is “inactive”.
In the case of `c1c2c(cc3c1OCO3)-c1cc3ccc4c(c3c[n+]1CC2)OCO4` [COPTISINE], the Activity entry with HaCaT [1] was “Toxic”. For the same compound, the inhibition result in the data set with HaCaT [2] was “inactive”.
As to `COc1cc2c(cc1OC)-c1cc3ccc4c(c3c[n+]1CC2)OCO4`, the Activity entry in the data set with HaCaT [1] was “Toxic”. Further, in the data set on HaCaT [2], the inhibition entry is “inactive”.
Take `COc1ccc2c(c1O)-c1c(O)c(OC)cc3c1[C@H](C2)[N+](C)(C)CC3` [MAGNOFLORINE]: the inhibition result with HaCaT [3], in the data set with HaCaT [4], with HaCaT [5], in the data set on HaCaT [6], in the data set on HaCaT [18] and in the data set with HaCaT [22] was “Active” throughout. Further, the inhibition entry with HaCaT [23] and in the data set with HaCaT [24] was “Active” throughout. The Activity in the data set with Mus musculus [7] is reported as 509.8; in the data set with HaCaT [8] it was “Non-Toxic”; with HaCaT [9], 22.1%; in [13], “Non-Toxic”; in the data set on HaCaT [1], “Non-Toxic”; with HaCaT [19] it was 12.66. Besides, the outcome in the data set with Mus musculus [10], in the data set with Mus musculus [11], in the data set with Mus musculus [12], with Mus musculus [14], in the data set on Mus musculus [15] and in the data set with Mus musculus [16] was Active. The result in the data set on Mus musculus [20] and in the data set with Mus musculus [21] was Active. Further, the inhibition result in the data set on HaCaT [17] and in the data set on HaCaT [2] was “Dose-dependent effect” each time.
For the compound `COc1cc2c(cc1O)-c1cc3ccc(OC)c(OC)c3c[n+]1CC2` [COLUMBAMINE], the Activity result in the data set on HaCaT [1] is recorded as “Toxic”. The inhibition result with HaCaT [2] was “inactive”.
In the same order, the values of `COc1cc2c(cc1O)CC[n+]1cc3c(OC)c(OC)ccc3cc1-2` [JATRORRHIZINE] are “Toxic” and “inactive”.
